# Experiments:
# [1] = test system: RNA polymerase II transcription; assay: Nuclear run-on assay, nuclei from treated HCT-116 cells; type: cell-based, human; conditions: HCT-116 cells treated 2 hours with 1 mM
# Experimental: Run-on assays with isolated nuclei were performed as described. Briefly, cells treated with the indicated agents were lysed with hypotonic buffer (10 mM Tris-HCl pH 7.4, 10 mM NaCl and 35 mM MgCl2) and nuclei collected by centrifugation and resuspended in nuclear storage buffer (50 mM HEPES pH 8.0, 5 mM MgCl2, 0.5 mM DTT, 1 mg/ml BSA and 25% (v/v) glycerol) at about 5×10^8 nuclei/ml and stored at −80° C. Transcription reactions were performed in 200 μl volume consisting of 1×10^7 nuclei in the presence of 0.12 M KCl, 7 mM Mg(Ac)2, 25 μCi of [^32P]GTP, 500 μM ATP, UTP and CTP at 30° C. Samples were collected at various time points (18 μl/time point—0, 5, 10, 20 and 30 min) and the reaction terminated by the addition of 57 μl of Sarkosyl solution (1% Sarkosyl, 0.1 M Tris pH 8.0, 0.1 M NaCl, 10 mM EDTA and 200 μg/ml tRNA). The stopped reactions were transferred to Whatman DE81 paper, and washed four times with wash buffer (5% K2HPO4 and 0.3% Na4P2O7) for 10 min, followed by a 5-min water wash. Then the paper was briefly rinsed with 95% ethanol and allowed to dry completely. Radiation was quantitated using a liquid scintillation counter.
# Some transcriptional inhibitors such as DRB and flavopiridol repress p21 and hdm2 while increasing p53 levels. […] To evaluate this activity, HCT-116 cells were treated with one of DMSO (control), ARC or DRB, and nuclei were isolated. These nuclei were assayed for rate of transcription either in the presence or absence of α-amanitin using the nuclear run-on assay. […] If ARC inhibits polymerase I and III transcription, the rate of transcription should be substantially lower in the ARC+α-amanitin (FIG. 2A; curve 5) when compared with DMSO+α-amanitin (FIG. 2A; curve 4). However both of these rates of transcription were similar, implying that ARC might preferentially affect only RNA polymerase II transcription.
# [2] = molecular target: T1, P-TEFb (Cdk9/Cyclin T1) (Homo sapiens, UniProt P50750); assay: P-TEFb kinase assay with p53 as substrate; type: biochemical; conditions: different concentrations, 30° C., 30 min
# T1 construct: gift from Dr. Nekhai (Howard University)
# Experimental: For P-TEFb kinase assays with p53 as a substrate, purified p53 protein (Protein One) was used. Twenty-five nanograms of p53 protein along with [γ^32P]ATP was used in reactions either in the presence or absence of P-TEFb, with or without the addition of ARC. The reaction was carried out at 30° C. for 30 min. The samples were resolved on an SDS-PAGE and transferred on to a PVDF membrane and exposed to X-ray film to detect phosphorylation of p53.
# In order to evaluate this activity, an in vitro kinase assay was performed with purified p53 protein and P-TEFb in the presence of different concentrations of ARC.
# [3] = test system: MCF-7 breast cancer cells; assay: Apoptosis assays in MCF-7 breast cancer cells; type: cell-based, human
# Experimental: Immunoblotting was performed as described with antibodies specific for p53 (sc-126 HRP; Santa Cruz), hdm2 (sc-965; Santa Cruz), p21 (556431; BD Pharmingen), Sp1 (sc-59; Santa Cruz), survivin (sc-10811; Santa Cruz), phospho RNA polymerase II (4735; Cell Signaling), total RNA polymerase II (8WG16; a gift from Dr. Schlegel, University of Illinois at Chicago), α-tubulin (T9026; Sigma), cleaved caspase-3 (9664; Cell Signaling), caspase-9 (9502; Cell Signaling) and β-actin (A5441; Sigma) antibodies.
# Apoptosis was detected either by DAPI (4′,6-diamidino-2-phenylindole) staining or by Flow Cytometry after PI (Propidium Iodide) staining. For DAPI staining, all treatments (DMSO or ARC) were done in triplicates in 6-well plates and cells were stained with DAPI and visualized by fluorescent microscopy. Four random fields for each sample were photographed and at least 500 cells per field were counted to estimate apoptosis. The data is represented as mean±Standard deviation (sd).
# In order to further characterize ARC with respect to its apoptotic potential, cell lines derived from cancers of different origin were utilized. MCF-7 breast cancer cells underwent apoptosis (around 45% and 55%, respectively, with 10 and 20 μM of ARC) after 24 hours of treatment (FIGS. 5A and 5B). […] To evaluate the extent to which ARC-mediated apoptosis is p53-dependent, an MCF-7 cell line that stably expresses a short hairpin RNA (shRNA) targeting p53 (MCF-7-p53si) was used.
# [4] = test system: Akt; assay: Akt Ser473 phosphorylation immunoblot in mAkt-overexpressing cells; type: cell-based; conditions: Rat1a-mAkt and MCF7-mAkt cells, 24 hours
# Experimental: FIG. 9. ARC interferes with the Akt pathway by inhibiting phosphorylation of Akt. Rat1a and MCF-7 cells overexpressing myristoylated-Akt (mAkt) were treated with the indicated concentration of ARC for 24 hours, after which the cell lysates were used for immunoblotting with total and phospho-Ser473 specific Akt antibodies.
# Another survival pathway that protects mitochondrial integrity is the Akt (AKT8 virus oncogene cellular homolog) pathway. In order to see if this pathway is affected, two different cell lines that overexpress myrisotylated-Akt (Rat1a-mAkt, and MCF7-mAkt) were used. Myristolated-Akt is a membrane-targeted Akt, a kinase involved in anti-apoptotic signaling.
# [5] = Preliminary toxicity studies (NCI/DTP) in mice; type: in vivo; conditions: as high as 200 mg/Kg, 5-day period, B6D2FI mice
# Description: Similarly, p21 may also act in an anti-apoptotic fashion by inducing cell-cycle arrest or by inhibiting pro-apoptotic molecules such as procaspase-3 and apoptosis signal-regulating kinasel (ASK1). […] The fact that ARC represses both survivin and p21 makes a strong case for consideration of ARC as a potential anti-tumor agent. This is further supported by the observation that ARC was >10-fold more efficient in inducing apoptosis than the other nucleoside analog DRB (FIG. 5F). This is especially intriguing because, as shown herein, ARC and DRB repress global transcription to similar extent (FIG. 2A). […] Preliminary toxicity studies from NCI/DTP indicate that concentrations as high as 200 mg/Kg were non-toxic to B6D2FI mice during a 5-day period.
# T1 sequence (P50750 whole entry, species assumed): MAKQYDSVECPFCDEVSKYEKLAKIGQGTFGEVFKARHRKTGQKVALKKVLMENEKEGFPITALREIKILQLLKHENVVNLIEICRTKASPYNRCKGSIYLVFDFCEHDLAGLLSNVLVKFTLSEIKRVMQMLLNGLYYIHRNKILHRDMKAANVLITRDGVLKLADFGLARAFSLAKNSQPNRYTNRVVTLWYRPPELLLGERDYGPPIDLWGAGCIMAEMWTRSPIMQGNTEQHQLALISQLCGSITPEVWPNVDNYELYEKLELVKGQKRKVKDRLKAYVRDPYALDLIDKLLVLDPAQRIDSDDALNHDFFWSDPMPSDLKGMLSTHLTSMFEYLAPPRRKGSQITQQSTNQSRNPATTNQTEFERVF
# T1 sequence (O60563 whole entry partner, species assumed): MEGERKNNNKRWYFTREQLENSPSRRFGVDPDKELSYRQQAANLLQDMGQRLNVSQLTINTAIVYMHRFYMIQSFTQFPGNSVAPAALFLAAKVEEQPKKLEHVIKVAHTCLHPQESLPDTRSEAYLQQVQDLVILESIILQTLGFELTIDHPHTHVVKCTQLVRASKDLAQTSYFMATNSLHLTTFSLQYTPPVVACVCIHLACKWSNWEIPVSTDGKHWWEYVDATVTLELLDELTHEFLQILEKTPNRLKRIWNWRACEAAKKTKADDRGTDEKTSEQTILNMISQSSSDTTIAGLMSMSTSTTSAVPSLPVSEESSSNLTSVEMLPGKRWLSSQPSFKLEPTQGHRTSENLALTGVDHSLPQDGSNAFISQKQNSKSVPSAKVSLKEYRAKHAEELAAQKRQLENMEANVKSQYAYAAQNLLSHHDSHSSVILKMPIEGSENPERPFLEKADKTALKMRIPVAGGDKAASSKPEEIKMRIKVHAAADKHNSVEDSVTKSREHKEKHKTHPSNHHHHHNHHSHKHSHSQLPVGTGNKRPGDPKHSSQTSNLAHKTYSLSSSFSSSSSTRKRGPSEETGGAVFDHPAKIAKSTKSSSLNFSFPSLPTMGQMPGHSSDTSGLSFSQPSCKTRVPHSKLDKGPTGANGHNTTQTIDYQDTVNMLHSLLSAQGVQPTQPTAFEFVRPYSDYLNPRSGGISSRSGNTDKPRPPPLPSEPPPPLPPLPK
smiles,measurement,setting,value
"NNc1c(C(N)=O)c2c(N)ncnc2n1[C@@H]1O[C@H](CO)[C@@H](O)[C@H]1O [ARC, 4-amino-6-hydrazino-7-beta-D-ribofuranosyl-7H-pyrrolo[2,3-d]-pyrimidine-5-carboxamide]",rate of transcription versus control nuclei,[1],lower
same,rate of transcription in the presence of α-amanitin versus DMSO+α-amanitin,[1]; 2 μg/ml α-amanitin,similar
same,phosphorylation of p53 by P-TEFb,[2],decreased in a dose-dependent manner
same,apoptosis (DAPI staining),"[3]; 10 μM, 24 hours",around 45%
same,apoptosis (DAPI staining),"[3]; 20 μM, 24 hours",~55%
same,cleavage of caspase-9,"[3]; MCF-7, 24 hours",cleavage of caspase-9 upon ARC treatment was observed
same,cleavage of caspase-9,"[3]; MCF-7-p53si cells (shRNA targeting p53), 24 hours",Cleavage of caspase-9 was detected
same,Ser473 phosphorylation on Akt,[4],decrease in Ser473 phosphorylation on Akt
same,toxicity,[5],non-toxic
